Broadly, the inhibition is the change of the read-out against control, counted positive when it falls. The IC50 is the concentration at which inhibition is half-maximal. A higher IC50 goes with weaker potency in that assay.

Data set [1] addresses T1, Steroid 17-alpha-hydroxylase/17,20 lyase (Homo sapiens, UniProt P05093).
T1 sequence (P05093 whole entry): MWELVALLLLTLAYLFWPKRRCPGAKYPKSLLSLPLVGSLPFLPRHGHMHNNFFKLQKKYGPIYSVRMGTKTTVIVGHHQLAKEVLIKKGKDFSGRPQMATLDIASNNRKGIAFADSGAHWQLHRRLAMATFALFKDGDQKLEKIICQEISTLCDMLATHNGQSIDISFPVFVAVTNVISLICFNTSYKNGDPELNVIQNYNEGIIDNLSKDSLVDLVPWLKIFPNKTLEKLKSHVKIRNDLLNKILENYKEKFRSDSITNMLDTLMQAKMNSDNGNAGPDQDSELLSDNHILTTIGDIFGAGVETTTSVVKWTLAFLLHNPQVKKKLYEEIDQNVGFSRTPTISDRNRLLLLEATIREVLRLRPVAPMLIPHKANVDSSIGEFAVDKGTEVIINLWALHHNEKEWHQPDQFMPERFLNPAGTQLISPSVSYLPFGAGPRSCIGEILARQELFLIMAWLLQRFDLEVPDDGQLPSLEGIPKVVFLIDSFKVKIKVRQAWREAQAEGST
Nature of the data set: Inhibition of human CYP17 expressed in Escherichia coli at 0.2 uM.

Data set [2] addresses T1, Steroid 17-alpha-hydroxylase/17,20 lyase. Description: Inhibition of human CYP17 expressed in Escherichia coli at 2 uM.
The target of data set [3] is T2, CYP1A2 (Homo sapiens, UniProt P05177).
T2 sequence (P05177 whole entry): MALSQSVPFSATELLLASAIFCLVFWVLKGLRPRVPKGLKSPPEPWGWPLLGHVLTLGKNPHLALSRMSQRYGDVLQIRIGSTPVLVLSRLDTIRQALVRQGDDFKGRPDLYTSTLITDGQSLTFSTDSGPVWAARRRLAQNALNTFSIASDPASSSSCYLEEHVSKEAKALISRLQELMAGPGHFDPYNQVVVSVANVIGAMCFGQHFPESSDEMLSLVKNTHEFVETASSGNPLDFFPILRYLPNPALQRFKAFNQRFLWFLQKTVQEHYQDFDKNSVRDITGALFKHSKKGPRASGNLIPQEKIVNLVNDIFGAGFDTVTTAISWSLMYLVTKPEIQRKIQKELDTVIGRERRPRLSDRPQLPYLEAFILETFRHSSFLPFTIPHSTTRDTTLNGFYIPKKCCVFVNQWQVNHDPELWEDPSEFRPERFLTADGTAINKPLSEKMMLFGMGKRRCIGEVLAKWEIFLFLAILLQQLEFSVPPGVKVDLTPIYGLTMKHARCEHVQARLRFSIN
Description: Inhibition of hepatic CYP1A2 at 10 uM. The format is ADME.

Data set [4] concerns the target T2, CYP1A2. Description: Inhibition of hepatic CYP1A2 at 1 uM. The format is ADME.
The target in data set [5] is T3, CYP2C19 (Homo sapiens, UniProt P33261). Description: Inhibition of hepatic CYP2C19 at 1 uM. The format is ADME.
T3 sequence (P33261 whole entry): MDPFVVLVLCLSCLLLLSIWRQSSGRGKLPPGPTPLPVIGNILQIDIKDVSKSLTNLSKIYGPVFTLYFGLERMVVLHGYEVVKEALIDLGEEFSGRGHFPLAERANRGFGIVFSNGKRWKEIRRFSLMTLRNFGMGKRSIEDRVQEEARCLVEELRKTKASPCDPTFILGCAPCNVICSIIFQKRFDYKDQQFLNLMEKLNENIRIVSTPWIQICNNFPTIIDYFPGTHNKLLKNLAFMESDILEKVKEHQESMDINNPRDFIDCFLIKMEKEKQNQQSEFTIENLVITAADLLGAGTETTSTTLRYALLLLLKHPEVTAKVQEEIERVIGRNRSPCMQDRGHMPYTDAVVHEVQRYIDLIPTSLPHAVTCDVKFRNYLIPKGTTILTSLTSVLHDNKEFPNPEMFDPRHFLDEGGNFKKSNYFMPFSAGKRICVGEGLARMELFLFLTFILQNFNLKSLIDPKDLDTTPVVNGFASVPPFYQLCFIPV
Data set [6] has as its target T4, CYP2C9 (Homo sapiens, UniProt P11712). Nature of the data set: Inhibition of hepatic CYP2C9 at 10 uM. The format is ADME.
In data set [7] the target is T4, CYP2C9. Description: Inhibition of hepatic CYP2C9 at 1 uM. The format is ADME.
For data set [8], the target named is T5, CYP3A4 (Homo sapiens, UniProt P08684). Nature of the data set: Inhibition of hepatic CYP3A4 at 10 uM. The format is ADME.
T5 sequence (P08684 whole entry): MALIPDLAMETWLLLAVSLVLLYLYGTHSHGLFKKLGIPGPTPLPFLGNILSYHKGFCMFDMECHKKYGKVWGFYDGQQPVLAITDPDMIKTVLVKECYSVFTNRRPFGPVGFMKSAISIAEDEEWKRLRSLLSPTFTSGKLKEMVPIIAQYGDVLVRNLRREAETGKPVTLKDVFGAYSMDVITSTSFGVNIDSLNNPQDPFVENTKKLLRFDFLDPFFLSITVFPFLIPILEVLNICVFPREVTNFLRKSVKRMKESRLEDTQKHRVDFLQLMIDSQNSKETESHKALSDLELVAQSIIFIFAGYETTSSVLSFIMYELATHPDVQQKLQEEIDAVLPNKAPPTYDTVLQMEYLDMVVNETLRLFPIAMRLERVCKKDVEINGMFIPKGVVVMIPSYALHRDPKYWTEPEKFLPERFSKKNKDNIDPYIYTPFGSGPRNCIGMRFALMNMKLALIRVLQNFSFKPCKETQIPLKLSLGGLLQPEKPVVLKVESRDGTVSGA
Data set [9] deals with T5, CYP3A4. Description: Inhibition of hepatic CYP3A4 at 1 uM. The format is ADME.
Data set [10] concerns the target T3, CYP2C19. Description: Inhibition of hepatic CYP2C19 at 10 uM. The format is ADME.
Data set [11] addresses T1, Steroid 17-alpha-hydroxylase/17,20 lyase. Description: Inhibition of human CYP17 expressed in Escherichia coli.
The target in data set [12] is T6, CYP11B1 (Homo sapiens, UniProt P15538).
T6 sequence (P15538 whole entry): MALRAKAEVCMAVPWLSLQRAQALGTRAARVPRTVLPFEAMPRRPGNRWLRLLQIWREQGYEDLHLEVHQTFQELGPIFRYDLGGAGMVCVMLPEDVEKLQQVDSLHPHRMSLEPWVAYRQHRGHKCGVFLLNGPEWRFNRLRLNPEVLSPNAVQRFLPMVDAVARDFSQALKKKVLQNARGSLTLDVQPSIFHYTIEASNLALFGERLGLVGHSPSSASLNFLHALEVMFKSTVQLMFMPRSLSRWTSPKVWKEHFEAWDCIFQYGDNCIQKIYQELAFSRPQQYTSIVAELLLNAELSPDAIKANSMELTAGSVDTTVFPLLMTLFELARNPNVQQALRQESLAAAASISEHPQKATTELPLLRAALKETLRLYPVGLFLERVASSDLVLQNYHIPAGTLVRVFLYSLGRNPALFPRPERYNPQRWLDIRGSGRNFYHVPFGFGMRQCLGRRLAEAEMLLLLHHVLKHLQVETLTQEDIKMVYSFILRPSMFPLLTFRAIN
Nature of the data set: Inhibition of human CYP11B1 expressed in V79Zh11B1 cells at 0.2 uM. The settings on record: V79Zh11B1 cells expressing human CYP11B1. The format is cell-based, V79.

The target in data set [13] is T7, CYP2D6 (Homo sapiens, UniProt P10635). Description: Inhibition of CYP2D6 at 10 uM. The format is ADME.
T7 sequence (P10635 whole entry): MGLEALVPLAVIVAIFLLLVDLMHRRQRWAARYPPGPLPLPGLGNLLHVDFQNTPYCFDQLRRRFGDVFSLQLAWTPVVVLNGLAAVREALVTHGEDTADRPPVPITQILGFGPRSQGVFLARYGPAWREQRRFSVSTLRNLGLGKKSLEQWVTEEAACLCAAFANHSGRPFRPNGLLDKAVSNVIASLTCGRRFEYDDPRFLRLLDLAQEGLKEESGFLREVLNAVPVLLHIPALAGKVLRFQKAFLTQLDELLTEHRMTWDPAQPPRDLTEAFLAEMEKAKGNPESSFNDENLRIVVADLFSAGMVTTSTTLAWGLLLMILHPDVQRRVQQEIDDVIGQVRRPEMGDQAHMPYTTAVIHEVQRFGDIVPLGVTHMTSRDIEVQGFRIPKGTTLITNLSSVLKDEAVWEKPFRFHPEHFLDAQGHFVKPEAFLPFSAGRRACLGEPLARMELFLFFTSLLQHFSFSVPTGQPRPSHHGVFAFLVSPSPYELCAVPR
Data set [14] deals with T7, CYP2D6. Nature of the data set: Inhibition of CYP2D6 at 1 uM. The format is ADME.
The target in data set [15] is T5, CYP3A4. Description: Inhibition of hepatic recombinant CYP3A4 at 10 uM. The format is ADME.
For data set [16], the target named is T6, CYP11B1. Nature of the data set: Inhibition of human CYP11B1 expressed in V79Zh11B1 cells at 2 uM. The format is cell-based. The settings on record: V79Zh11B1 cells expressing human CYP11B1.

T4 sequence (P11712 whole entry): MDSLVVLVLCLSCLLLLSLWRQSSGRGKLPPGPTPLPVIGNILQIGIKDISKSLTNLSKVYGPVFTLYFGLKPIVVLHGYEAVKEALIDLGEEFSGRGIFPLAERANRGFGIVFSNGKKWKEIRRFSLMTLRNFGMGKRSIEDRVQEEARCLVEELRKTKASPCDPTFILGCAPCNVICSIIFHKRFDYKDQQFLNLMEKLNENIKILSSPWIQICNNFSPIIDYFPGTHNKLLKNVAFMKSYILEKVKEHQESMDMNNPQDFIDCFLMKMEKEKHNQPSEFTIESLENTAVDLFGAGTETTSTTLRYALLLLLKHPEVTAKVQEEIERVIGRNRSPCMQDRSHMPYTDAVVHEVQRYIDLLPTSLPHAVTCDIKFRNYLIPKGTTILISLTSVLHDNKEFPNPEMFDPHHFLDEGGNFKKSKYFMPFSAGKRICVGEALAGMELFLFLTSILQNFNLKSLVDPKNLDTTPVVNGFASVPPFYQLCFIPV

In turn, `COc1ccc2cc(-c3cccc(-c4cccnc4)c3)ccc2c1` displayed an inhibition at 0.2 µM in data set [1] of 3%. Also, the inhibition at 2 µM in data set [2] came to 4%.
On the same counts, the results for `Fc1ccc(-c2cc(Cn3ccnc3)c3ccccc3c2)cc1` are 9% and 50%.
`Fc1ccc(-c2ccc3c(-c4ccncc4)cccc3c2)cc1` had an inhibition at 0.2 µM in [1] of 1%. This compound registered an inhibition at 2 µM in [2] of 28%.
Take `COc1ccc2cc(-c3ccc(F)cc3)ccc2c1Cn1ccnc1`: the inhibition at 0.2 µM in data set [1] was found to be 13%. Also, the inhibition at 10 µM against CYP1A2 [3] came out at 85%; at CYP2C9 [6], 100%; at CYP3A4 [8], 95%; on CYP2C19 [10] it was 96%. For the same compound, the inhibition at 1 µM was 80% on CYP1A2 [4], 93% against CYP2C19 [5], 100% against CYP2C9 [7] and 93% against CYP3A4 [9]. For the same compound, the inhibition at 2 µM in data set [2] amounted to 45%.
Regarding `Cc1cc(F)ccc1-c1ccc2c(-c3cccnc3)cccc2c1`, in data set [1], the inhibition at 0.2 µM was found to be 3%. The same compound returned an inhibition at 2 µM in data set [2] of 3%.
In data set [1], `Fc1ccc(-c2ccc3cc(-c4cccnc4)ccc3c2)cc1` had an inhibition at 0.2 µM of 0%. In data set [2], this compound yielded an inhibition at 2 µM of 22%.
For `CC(=O)N1CCN(c2ccc(OCC3COC(Cn4ccnc4)(c4ccc(Cl)cc4Cl)O3)cc2)CC1` (stereo not drawn) [KETOCONAZOLE], the inhibition at 10 µM on CYP1A2 [3] came out at 38%; against CYP2C9 [6], 75%; on CYP3A4 [8], 4%; against CYP2C19 [10] it was 1%. The inhibition at 1 µM came out at 8% on CYP1A2 [4], 24% against CYP2C19 [5], 21% against CYP2C9 [7] and 1% against CYP3A4 [9].
For `COc1ccc2cc(-c3ccc(F)cc3)ccc2c1-c1cccnc1`, at 0.2 µM the inhibition in data set [1] was 6%. For the same compound, the inhibition at 10 µM at CYP1A2 [3] was determined as 87%; against CYP2C9 [6], 54%; against CYP3A4 [8], 86%; against CYP2C19 [10], 28%. In addition, the inhibition at 1 µM on CYP1A2 [4] came out at 40%; against CYP2C19 [5] it was 68%; on CYP2C9 [7] it was 66%; on CYP3A4 [9] it was 64%. The inhibition at 2 µM in [2] is 7%.
In data set [1], `Fc1ccc(-c2ccc3c(Cn4ccnc4)cccc3c2)cc1` registered an inhibition at 0.2 µM of 2%. The inhibition at 2 µM in data set [2] amounted to 19%.
In the case of `C[C@]12CC[C@H](O)CC1=CC[C@@H]1[C@@H]2CC[C@]2(C)C(c3cccnc3)=CC[C@@H]12` [ABIRATERONE], the inhibition at 10 µM is 53% against CYP1A2 [3], 51% on CYP2C9 [6], 7% at CYP3A4 [8] and 7% against CYP2C19 [10]. For the same compound, the inhibition at 1 µM against CYP1A2 [4] was 36%; against CYP2C19 [5] it was 3%; against CYP2C9 [7] it was 17%; on CYP3A4 [9] it was 7%. In addition, the IC50 in [11] is 72 nM.
Take `COc1ccc2cc(-c3cccc(-c4ccncc4)c3)ccc2c1`: 0.2 µM produced 4% inhibition in data set [1]. In [2], this compound registered an inhibition at 2 µM of 23%.
On the same counts, the results for `Oc1ccc2cc(-c3ccc(F)cc3)ccc2c1-c1cccnc1` are 0% and 0%.
On the same counts, the results for `Oc1ccc2cc(-c3ccc(Cn4ccnc4)cc3)ccc2c1` are 24% and 61%.
On the same counts, the results for `Fc1ccc(-c2ccc3c(-c4cccnc4)cccc3c2)cc1` are 2% and 3%.
In turn, `Fc1ccc(-c2ccc3cc(Cn4ccnc4)ccc3c2)cc1` had an inhibition at 0.2 µM in data set [1] of 3%. In [2], this compound yielded an inhibition at 2 µM of 14%.
Regarding `COc1ccc2cc(-c3cccc(Cn4ccnc4)c3)ccc2c1`, the inhibition at 0.2 µM in data set [1] was determined as 0%. The inhibition at 10 µM against CYP1A2 [3] was determined as 97%; at CYP2C9 [6] it was 100%; on CYP3A4 [8], 96%; against CYP2C19 [10], 97%. Further, the inhibition at 1 µM against CYP1A2 [4] amounted to 96%; against CYP2C19 [5], 95%; on CYP2C9 [7], 97%; against CYP3A4 [9], 91%. The compound further displayed an inhibition at 2 µM in data set [2] of 28%.
Regarding `Oc1ccc2cc(-c3cccc(-c4cccnc4)c3)ccc2c1`, testing at 0.2 µM in data set [1] gave an inhibition of 0%. 2 µM produced 8% inhibition in data set [2].
With `Oc1ccc2cc(-c3cccc(-c4ccncc4)c3)ccc2c1`, the inhibition at 0.2 µM came to 31% in data set [1] and 3% at CYP11B1 [12]. Also, the inhibition at 10 µM against CYP1A2 [3] is 98%; at CYP2D6 [13], 85%; on CYP2C9 [6], 97%; on CYP3A4 [8] it was 19%; on CYP3A4 [15], 19%; on CYP2C19 [10] it was 89%. Besides, the inhibition at 1 µM amounted to 98% at CYP1A2 [4]; 86% against CYP2C19 [5]; 94% against CYP2C9 [7]; 80% against CYP2D6 [14]; 6% against CYP3A4 [9]. Also, the inhibition at 2 µM came out at 66% in data set [2] and 23% at CYP11B1 [16].
The compound `COc1ccc2cc(-c3cccnc3)ccc2c1-c1ccc(F)cc1` returned an inhibition at 0.2 µM in [1] of 0%. At 2 µM the inhibition in [2] was 1%.

The values above are taken from ChEMBL document CHEMBL1140785, “Synthesis, biological evaluation and molecular modelling studies of novel ACD- and ABD-ring steroidomimetics as inhibitors of CYP17” (Bioorg Med Chem Lett, 2008).
